Four compounds from patent publication US20140294763A1, “PEPTIDOMIMETIC PROTEASE INHIBITORS” (priority 2000, published 2014) can be followed below.

Several values for one entry are separate records, joined by “and”; a condition that tells them apart may be missing. Equal entries are not always repeated. Where two headings read alike, the source gives them in different places. Some results are limits rather than exact numbers.

Data set [1] deals with HCV subgenomic RNA replicon in Huh7 cells. In words: HCV subgenomic RNA replicon assay (Replicon Assay), TaqMan RT-PCR of replicon RNA after 48 h treatment. In kind it is cell-based, hepatitis C virus (HCV). The settings on record: for Inhibition of replicon RNA accumulation: 48 hour treatment. The source says:
The Replicon Assay measures the amount of HCV subgenomic RNA (replicon RNA) remaining in replicon cells (Lohman et al. Science 285:110-113 (1999)) after two days of drug treatment relative to the amount of replicon RNA in untreated cells. In this assay, the potency of compounds as HCV antiviral drugs is directly proportional to the level of inhibition of replicon RNA accumulation.
The Replicon Assay employing a cell line containing the self-replicating HCV subgenomic RNA (replicon) is described in Lohmann et al. Science 285:110-113 (1999). The Genbank accession number for the sequence of the replicon used in the experiments described herein is listed in this reference as AJ242654. This paper discloses methods for in vitro transcription of RNA from the replicon cDNA, transfection of the replicon RNA into Huh7 cells by electroporation, and selection of cells containing the replicon RNA using the antibiotic G418. Huh7 cells are a hepatoma cell line obtained from Dr. William Mason at Fox Chase Cancer Research Center (Philadelphia). These cells are publicly available from Fox Chase, and have been extensively described in the scientific literature (Nakabayashi at al. Cancer Res. 42:3858-3863 (1982)). In the experiments described herein, all of the template DNA is removed from the in vitro transcribed replicon RNA preparation prior to electroporation of this RNA into Huh7 cells by multiple treatment with DNase (three sequential treatments).
The Replicon Assay is performed as described in detail below. Briefly, Replicon cells are placed in 96 well trays at a density of 10,000 cells per well and incubated 37° C. The cells are incubated in DMEM ([…]) supplemented with 10% fetal bovine serum, glutamine, nonessential amino acids, and the antibiotic G418 (0.25 mg/ml). […] Each compound is tested at six to eight different concentrations. […] Each HCV serine protease inhibitor concentration is tested without any added interferon, as well as with the addition of six to eight different interferon doses. Similarly, interferon is tested without any added HCV serine protease inhibitor. After a 48-hour incubation with the compounds, the medium is removed from the plates, and total cellular RNA is extracted from the cells using the RNeasy-96 kit manufactured by Qiagen Inc. (Valencia, Calif.). This RNA is then analyzed by quantitative RT-PCR, or TaqMan® (Applied Biosystems, Foster City Calif.). The TaqMan® RT-PCR target is the neomycin resistance gene in the replicon RNA. The plates are configured so that there are 5 replicates of each drug treatment sample, and 16 replicates of the untreated samples. This permits greater statistical confidence in the quantitative RT-PCR data.
Analysis of the Replicon Assay data yields two values that are useful in assessing the potency of potential HCV antiviral agents. At each compound concentration tested, the level of inhibition in replicon RNA accumulation caused by the compound during two days of treatment relative to the amount of replicon RNA in untreated cells is determined. This is reported as percent inhibition. […] The IC50 is the value used to rank individual compounds tested in this assay based on their potency as HCV antiviral agents. Simple IC50 determinations are inadequate to assess the utility of compounds used in combination.
The Replicon Assay is used to measure the capacity of potential HCV antiviral compounds to inhibit the accumulation of a HCV subgenomic RNA replicon molecule in a Huh7 cell line (Lohmann et al. Replication of Subgenomic Hepatitis C Virus RNAs in a Hepatoma Cell Line. Science 285, 110-113 (1999)).

Data set [2] in a line: XTT metabolic assay to determine replicon cell viability. The settings on record: human. From the text: (§1) Inflamation Research. […] It is assumed that the level of GAPDH mRNA, which is a constitutively expressed housekeeping gene, is the same in all viable cells. […] Thus, it is postulated, as done by others using TaqMan® technology to determine the levels of particular mRNAs in human cells, that GAPDH mRNA levels are proportional to viable cell numbers (VCN) in any given sample, with the relationship of VCN=2^̂(40−CtGAPDH mRNA). The VCN is computed for each of the Replicon Assay sample wells, and then we divide the HCV Replicon RNA copy number for a specific well by the VCN for that well. Once computed, this ratio is used instead of the HCV copy number to compute inhibition (“Avg. Inh using ratio”; FIG. 14A). […] In the Replicon Assay, it is assumed that the measured inhibition of HCV RNA replicon accumulation is the sum of the actual inhibition of HCV RNA replicon accumulation and the apparent inhibition of HCV RNA replicon accumulation due to cytoxicity. […] Thus, the true anti-HCV activity of a compound in the Replicon Assay corrected for general cytotoxicity can be estimated by dividing the number of HCV replicon RNA molecules measured in each sample by the VCN, thus normalizing to the number of viable cells in each sample. […] In FIG. 14A, “Avg.
A general note: Formazan colour is commonly taken as a measure of viable cells.

The subject of data set [3] is replicon cells (glyceraldehyde-3-phosphate dehydrogenase (GAPDH) mRNA levels). In words: TaqMan quantitative RT-PCR of GAPDH mRNA levels in treated versus untreated replicon cells (cytotoxicity measure). The settings on record: treated versus untreated cells in the Replicon Assay.
From the text: as §1
On the technique in general: In qPCR the cycle at which signal appears reflects the starting amount.

Setting [4] is: Hepatitis C virus, Huh-7, 48 h, read-out: IC50 HSPI, antiviral compound used individually, HCV replicon RNA accumulation, 48 h, response-surface fit (Ribavirin corrected for cytotoxicity).
[5] abbreviates: read-out: IC50 HSPI, antiviral compound used individually, HCV replicon RNA accumulation, 48 h, response-surface fit (Ribavirin corrected for cytotoxicity).

A word on the IC50: it is the concentration that inhibits the measured activity by half.

On to `CCC[C@H](NC(=O)[C@@H]1[C@H]2CCC[C@H]2CN1C(=O)[C@@H](NC(=O)[C@@H](NC(=O)c1cnccn1)C1CCCCC1)C(C)(C)C)C(=O)C(=O)NC1CC1` [Compound CU], for which the “Inhibition of replicon RNA accumulation” value in data set [1] (Compound CU 0.0123 μM alone (interferon-alpha 2B 0 U)) turned out to be 5%; in data set [1] (Compound CU 0.0370 μM alone (interferon-alpha 2B 0 U)) it was 8%; in data set [1] (Compound CU 0.1111 μM alone (interferon-alpha 2B 0 U)), 11%; in data set [1] (Compound CU 0.333 μM alone (interferon-alpha 2B 0 U)), 28%; in data set [1] (Compound CU 1 μM alone (interferon-alpha 2B 0 U)), 88%; in data set [1] (Compound CU 3 μM alone (interferon-alpha 2B 0 U)) it was 98%. Besides, the IC50 was 480 nM in data set [1] (Hepatitis C virus, Huh-7, 48 h, Compound CU as single drug treatment, initial experiment, replicon RNA accumulation 48 h); 469 nM in data set [1] (setting [4]); 446 nM and 587 nM and 633 nM and 605 nM and 466 nM in data set [1] (setting [5]). The compound also returned a CC50 in data set [2] (HCV replicon cells (Huh7)) of 64.7 µM.
Turning to `CCC[C@H](NC(=O)C1[C@H]2CCC[C@H]2CN1C(=O)[C@@H](NC(=O)[C@@H](NC(=O)[C@@H](C)NC(=O)OC)C1CCCCC1)C(C)(C)C)C(=O)C(=O)NC1CC1` (stereo partly shown) [Compound EC], the IC50 in data set [1] (setting [4]) came out at 384 nM; in data set [1] (setting [5]), 312 nM. In addition, the CC50 in data set [2] (HCV replicon cells (Huh7)) is > 50 µM.
Regarding `CCC[C@@H](NC(=O)[C@@H]1[C@H]2CCCC2CN1C(=O)[C@@H](NC(=O)[C@H](NC(=O)c1cnccn1)C1CCCCC1)[C@H](C)CC)C(=O)C(=O)NC1CC1` (stereo partly shown) [Compound EP], the IC50 in data set [1] (setting [4]) came to 426 nM. Further, the CC50 in data set [2] was > 10 µM.
Consider `NC(=O)c1ncn([C@@H]2O[C@H](CO)[C@@H](O)[C@H]2O)n1` [Ribavirin, reference compound], for which the IC50 is 145000 nM in data set [1] (setting [4]) and ~80000 nM in data set [1] (Hepatitis C virus, Huh-7, read-out: uncorrected IC50 (Avg. Inh original), not corrected for cytotoxicity). The “reduction of accumulation of HCV replicon RNA (in words)” value in data set [1] (compound alone) is reported as “marginally effective”. Further, in data set [3], the “cytotoxicity (GAPDH mRNA levels, TaqMan RT-PCR)” value was “significant Ribavirin-induced cytotoxicity”.
